Activity calls are given as the source filed them.
Tests used:
Glycine--tRNA ligase = biological target: T1, Glycine--tRNA ligase (Homo sapiens, UniProt P41250)
T1 sequence (P41250 whole entry): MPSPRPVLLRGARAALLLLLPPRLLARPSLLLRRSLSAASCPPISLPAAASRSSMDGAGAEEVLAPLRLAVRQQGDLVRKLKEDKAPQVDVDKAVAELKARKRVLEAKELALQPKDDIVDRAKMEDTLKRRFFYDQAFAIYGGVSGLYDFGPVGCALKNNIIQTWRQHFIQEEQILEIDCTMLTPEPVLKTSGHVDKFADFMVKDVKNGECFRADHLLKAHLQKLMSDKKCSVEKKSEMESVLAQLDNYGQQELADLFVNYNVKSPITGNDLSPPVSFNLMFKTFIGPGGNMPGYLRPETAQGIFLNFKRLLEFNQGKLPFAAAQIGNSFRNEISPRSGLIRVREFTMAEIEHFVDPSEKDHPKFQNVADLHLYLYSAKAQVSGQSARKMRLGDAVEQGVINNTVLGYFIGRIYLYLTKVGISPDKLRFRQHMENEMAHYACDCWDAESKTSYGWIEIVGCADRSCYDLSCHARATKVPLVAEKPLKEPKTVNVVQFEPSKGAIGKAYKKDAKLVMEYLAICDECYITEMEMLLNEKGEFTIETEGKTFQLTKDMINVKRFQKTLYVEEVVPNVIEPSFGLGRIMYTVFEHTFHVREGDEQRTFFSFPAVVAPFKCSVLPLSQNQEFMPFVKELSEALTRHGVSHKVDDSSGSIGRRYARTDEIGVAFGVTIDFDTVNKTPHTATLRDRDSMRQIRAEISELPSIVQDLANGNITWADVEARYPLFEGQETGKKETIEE

[1] = biological target: NADH dehydrogenase [ubiquinone] 1 alpha subcomplex subunit 13 (Homo sapiens, UniProt Q9P0J0)
Chain of NADH dehydrogenase [ubiquinone] 1 alpha subcomplex subunit 13 (Q9P0J0 whole entry, one chain of several): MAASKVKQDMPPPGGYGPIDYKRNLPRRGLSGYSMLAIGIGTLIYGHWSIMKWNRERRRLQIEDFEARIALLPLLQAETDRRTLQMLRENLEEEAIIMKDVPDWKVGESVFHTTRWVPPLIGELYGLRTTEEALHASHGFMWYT

[2] = biological target: cAMP-dependent protein kinase catalytic subunit beta (Homo sapiens, UniProt P22694)
[3] = biological target: T2, Exosome RNA helicase MTR4 (Homo sapiens, UniProt P42285)
T2 sequence (P42285 whole entry): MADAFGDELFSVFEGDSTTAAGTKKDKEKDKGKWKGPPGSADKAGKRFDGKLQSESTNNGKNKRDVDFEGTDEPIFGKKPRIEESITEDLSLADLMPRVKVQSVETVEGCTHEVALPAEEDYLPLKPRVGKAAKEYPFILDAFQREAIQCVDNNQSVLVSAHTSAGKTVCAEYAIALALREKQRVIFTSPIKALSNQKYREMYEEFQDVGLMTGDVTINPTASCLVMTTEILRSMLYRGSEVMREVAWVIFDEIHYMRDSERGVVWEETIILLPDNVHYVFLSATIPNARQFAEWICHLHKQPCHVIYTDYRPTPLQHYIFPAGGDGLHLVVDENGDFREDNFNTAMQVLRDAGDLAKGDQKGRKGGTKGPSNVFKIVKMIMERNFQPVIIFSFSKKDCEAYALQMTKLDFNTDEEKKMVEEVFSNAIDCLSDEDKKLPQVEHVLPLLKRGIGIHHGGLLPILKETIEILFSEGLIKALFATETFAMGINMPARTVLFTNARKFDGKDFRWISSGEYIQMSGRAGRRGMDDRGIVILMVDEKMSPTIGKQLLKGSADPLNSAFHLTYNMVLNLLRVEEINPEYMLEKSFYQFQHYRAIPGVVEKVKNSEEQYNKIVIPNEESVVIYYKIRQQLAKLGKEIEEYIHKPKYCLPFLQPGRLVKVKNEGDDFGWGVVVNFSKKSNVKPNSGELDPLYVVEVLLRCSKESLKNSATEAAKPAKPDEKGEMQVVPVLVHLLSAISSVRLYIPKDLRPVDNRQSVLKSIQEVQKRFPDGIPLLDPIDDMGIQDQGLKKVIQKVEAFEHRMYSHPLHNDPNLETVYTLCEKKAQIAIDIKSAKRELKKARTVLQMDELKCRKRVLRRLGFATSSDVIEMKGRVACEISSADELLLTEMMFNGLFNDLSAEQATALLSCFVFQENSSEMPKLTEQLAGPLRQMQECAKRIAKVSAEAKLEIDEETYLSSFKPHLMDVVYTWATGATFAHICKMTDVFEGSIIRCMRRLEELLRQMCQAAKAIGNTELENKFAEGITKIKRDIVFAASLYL

TGF-beta receptor type-1 = biological target: T3, TGF-beta receptor type-1 (Homo sapiens, UniProt P36897)
T3 sequence (P36897 whole entry): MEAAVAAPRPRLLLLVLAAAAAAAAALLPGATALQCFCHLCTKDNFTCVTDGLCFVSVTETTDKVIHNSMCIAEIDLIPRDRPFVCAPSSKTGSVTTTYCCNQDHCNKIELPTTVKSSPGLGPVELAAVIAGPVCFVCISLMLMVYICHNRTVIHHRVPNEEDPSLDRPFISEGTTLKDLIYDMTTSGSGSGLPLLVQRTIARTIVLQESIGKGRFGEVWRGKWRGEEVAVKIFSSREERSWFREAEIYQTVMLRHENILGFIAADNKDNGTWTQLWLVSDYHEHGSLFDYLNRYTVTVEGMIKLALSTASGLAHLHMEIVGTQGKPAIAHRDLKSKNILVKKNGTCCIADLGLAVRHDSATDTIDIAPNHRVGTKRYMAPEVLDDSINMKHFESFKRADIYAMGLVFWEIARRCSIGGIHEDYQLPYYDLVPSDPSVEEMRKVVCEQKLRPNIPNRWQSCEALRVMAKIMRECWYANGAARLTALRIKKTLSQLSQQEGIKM

[4] = biological target: DNA topoisomerase 2-alpha (Homo sapiens, UniProt P11388)
Chain of DNA topoisomerase 2-alpha (P11388 whole entry): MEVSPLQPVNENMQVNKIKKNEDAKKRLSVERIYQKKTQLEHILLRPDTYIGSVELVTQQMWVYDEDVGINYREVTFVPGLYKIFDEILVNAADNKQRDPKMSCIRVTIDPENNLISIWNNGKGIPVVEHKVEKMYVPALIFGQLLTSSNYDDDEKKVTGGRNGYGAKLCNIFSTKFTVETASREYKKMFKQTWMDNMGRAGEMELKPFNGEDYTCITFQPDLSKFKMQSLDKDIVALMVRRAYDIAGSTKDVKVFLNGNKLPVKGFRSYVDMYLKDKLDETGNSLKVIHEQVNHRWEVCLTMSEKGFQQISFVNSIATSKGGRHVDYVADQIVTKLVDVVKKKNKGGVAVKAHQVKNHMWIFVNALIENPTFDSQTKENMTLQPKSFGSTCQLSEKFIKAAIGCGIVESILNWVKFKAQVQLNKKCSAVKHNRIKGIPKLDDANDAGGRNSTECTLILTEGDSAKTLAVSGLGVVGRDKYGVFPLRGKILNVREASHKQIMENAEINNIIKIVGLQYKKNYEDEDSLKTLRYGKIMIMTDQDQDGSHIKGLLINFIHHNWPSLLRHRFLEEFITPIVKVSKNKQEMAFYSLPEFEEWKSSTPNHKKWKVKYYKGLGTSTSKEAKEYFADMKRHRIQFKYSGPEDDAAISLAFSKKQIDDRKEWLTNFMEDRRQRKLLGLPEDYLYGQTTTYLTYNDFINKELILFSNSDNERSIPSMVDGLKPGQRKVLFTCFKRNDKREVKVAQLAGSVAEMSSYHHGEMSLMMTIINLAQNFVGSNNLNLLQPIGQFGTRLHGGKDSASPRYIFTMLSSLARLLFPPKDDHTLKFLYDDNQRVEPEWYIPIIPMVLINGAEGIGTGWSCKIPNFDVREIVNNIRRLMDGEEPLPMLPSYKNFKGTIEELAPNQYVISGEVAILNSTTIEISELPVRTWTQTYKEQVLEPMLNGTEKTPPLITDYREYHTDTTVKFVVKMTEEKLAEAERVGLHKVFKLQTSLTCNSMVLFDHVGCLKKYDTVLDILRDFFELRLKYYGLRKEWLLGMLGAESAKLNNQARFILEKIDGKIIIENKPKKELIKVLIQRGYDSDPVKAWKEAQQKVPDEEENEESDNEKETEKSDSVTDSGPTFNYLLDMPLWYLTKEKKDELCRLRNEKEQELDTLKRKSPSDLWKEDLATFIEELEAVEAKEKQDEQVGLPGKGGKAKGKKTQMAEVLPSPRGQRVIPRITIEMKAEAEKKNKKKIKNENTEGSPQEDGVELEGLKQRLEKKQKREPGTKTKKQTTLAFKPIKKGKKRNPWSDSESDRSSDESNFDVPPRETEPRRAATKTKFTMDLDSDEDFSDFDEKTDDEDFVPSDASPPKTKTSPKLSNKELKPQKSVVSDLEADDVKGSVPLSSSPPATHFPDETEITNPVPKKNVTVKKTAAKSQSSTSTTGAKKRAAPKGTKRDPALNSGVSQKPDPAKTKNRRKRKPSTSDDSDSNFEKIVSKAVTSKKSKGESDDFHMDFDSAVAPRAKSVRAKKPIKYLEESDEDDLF

[5] = biological target: T4, Cytochrome c1, heme protein, mitochondrial (Homo sapiens, UniProt P08574)
T4 sequence (P08574 whole entry): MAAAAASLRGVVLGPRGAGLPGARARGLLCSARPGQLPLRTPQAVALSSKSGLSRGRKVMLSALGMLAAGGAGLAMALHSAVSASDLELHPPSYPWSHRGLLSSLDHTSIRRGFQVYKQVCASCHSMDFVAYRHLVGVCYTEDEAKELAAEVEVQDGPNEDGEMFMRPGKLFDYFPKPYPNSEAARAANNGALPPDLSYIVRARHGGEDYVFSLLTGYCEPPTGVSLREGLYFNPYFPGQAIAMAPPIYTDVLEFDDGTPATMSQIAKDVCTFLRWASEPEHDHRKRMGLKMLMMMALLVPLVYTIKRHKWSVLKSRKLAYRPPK
Also: in the data inactive means no Kd found up to 30 µM.

Kd (Glycine--tRNA ligase) | Kd [1] | Kd [2] | Kd [3] | Kd (TGF-beta receptor type-1) | Kd [4] | Kd [5] | Compound
> 30 µM (inactive) | > 30 µM (inactive) | > 30 µM (inactive) | > 30 µM (inactive) | > 30 µM (inactive) | > 30 µM (inactive) | > 30 µM (inactive) | Nc1ncnc2c1c(-c1cccc(OCc3ccccc3)c1)cn2[C@H]1C[C@@H](CN2CCC2)C1 [AEW-541]
> 30 µM (inactive) | > 30 µM (inactive) | > 30 µM (inactive) | > 30 µM (inactive) | > 30 µM (inactive) | – | > 30 µM (inactive) | CCn1c(C(=O)N(C2CC2)C2CC2)cc2c3c(ncn3C)c(Nc3cc(C)n(C)n3)nc21 [BMS-911543]
> 30 µM (inactive) | > 30 µM (inactive) | > 30 µM (inactive) | > 30 µM (inactive) | > 30 µM (inactive) | – | > 30 µM (inactive) | Cn1cc(-c2cnc3ccc4ccc(CS(=O)(=O)NCc5ccccn5)cc4c(=O)c3c2)cn1 [MK-8033]
> 30 µM (inactive) | > 30 µM (inactive) | – | > 30 µM (inactive) | > 30 µM (inactive) | > 30 µM (inactive) | > 30 µM (inactive) | Cc1nc(Nc2n[nH]c3c2CN(C(=O)N[C@H](CN(C)C)c2ccccc2)C3(C)C)c2sccc2n1 [PF-03758309]
> 30 µM (inactive) | > 30 µM (inactive) | – | > 30 µM (inactive) | – | > 30 µM (inactive) | > 30 µM (inactive) | O=C(NOCCO)c1cc(CN2OCCCC2=O)c(F)c(F)c1Nc1ccc(I)cc1F [RO-4987655]
> 30 µM (inactive) | > 30 µM (inactive) | > 30 µM (inactive) | > 30 µM (inactive) | – | > 30 µM (inactive) | > 30 µM (inactive) | CC(C)c1cc(CNc2nc(Nc3cc(C4CC4)[nH]n3)cc(N3CCN(C)CC3)n2)on1 [XL-228]

The next lines start with the compound.

Compound | Kd (Glycine--tRNA ligase) | Kd [1] | Kd [2] | Kd [3] | Kd (TGF-beta receptor type-1) | Kd [4] | Kd [5]
C[C@@H](Oc1cc(C(=O)Nc2ccc(C(=O)N3CCN(C)CC3)cc2)nnc1N)c1c(Cl)ccc(F)c1Cl | > 30 µM (inactive) | > 30 µM (inactive) | > 30 µM (inactive) | > 30 µM (inactive) | > 30 µM (inactive) | > 30 µM (inactive) | –
C[C@H]1CNCCCN1S(=O)(=O)c1cccc2cncc(F)c12 | > 30 µM (inactive) | > 30 µM (inactive) | > 30 µM (inactive) | > 30 µM (inactive) | > 30 µM (inactive) | – | > 30 µM (inactive)
CC(=O)c1cnc2ccc(-c3cc(Cl)c(O)c(Cl)c3)nc2c1N[C@H]1CC[C@H](CN(C)C)CC1 | > 30 µM (inactive) | > 30 µM (inactive) | > 30 µM (inactive) | > 30 µM (inactive) | 0.149 µM (active) | > 30 µM (inactive) | > 30 µM (inactive)
CCNC(=O)C#Cc1ccc2c(c1)NC(=O)/C2=C(\Nc1ccc(CN(C)C)cc1)c1ccccc1 | > 30 µM (inactive) | > 30 µM (inactive) | > 30 µM (inactive) | > 30 µM (inactive) | > 30 µM (inactive) | > 30 µM (inactive) | > 30 µM (inactive)
COc1cc(Nc2ncc3c(n2)-c2ccc(Cl)cc2C(c2c(F)cccc2OC)=NC3)ccc1C(=O)O [ALISERTIB] | > 30 µM (inactive) | 3.92 µM | > 30 µM (inactive) | > 30 µM (inactive) | > 30 µM (inactive) | > 30 µM (inactive) | > 30 µM (inactive)
Cc1nc(NC(=O)N2CCC[C@H]2C(N)=O)sc1-c1ccnc(C(C)(C)C(F)(F)F)c1 [ALPELISIB] | > 30 µM (inactive) | – | > 30 µM (inactive) | > 30 µM (inactive) | > 30 µM (inactive) | > 30 µM (inactive) | > 30 µM (inactive)
C=CC(=O)Nc1cc2c(Nc3ccc(F)c(Cl)c3)ncnc2cc1C#CC(C)(C)N1CCN(C)CC1 [AV-412 FREE BASE] | > 30 µM (inactive) | > 30 µM (inactive) | > 30 µM (inactive) | > 30 µM (inactive) | > 30 µM (inactive) | > 30 µM (inactive) | > 30 µM (inactive)
Cn1cnc2c(F)c(Nc3ccc(Br)cc3F)c(C(=O)NOCCO)cc21 [BINIMETINIB] | > 30 µM (inactive) | > 30 µM (inactive) | > 30 µM (inactive) | > 30 µM (inactive) | > 30 µM (inactive) | > 30 µM (inactive) | > 30 µM (inactive)
Cc1cc(Nc2ncc(Cl)c(Nc3ccccc3S(=O)(=O)C(C)C)n2)c(OC(C)C)cc1C1CCNCC1 [CERITINIB] | > 30 µM (inactive) | > 30 µM (inactive) | > 30 µM (inactive) | > 30 µM (inactive) | > 30 µM (inactive) | > 30 µM (inactive) | > 30 µM (inactive)
Cc1nc2cc(-n3ncc(C(=O)c4cc5ccccc5[nH]4)c3N)ccc2[nH]1 [FGFR INHIBITOR DEBIO 1347] | > 30 µM (inactive) | > 30 µM (inactive) | > 30 µM (inactive) | > 30 µM (inactive) | > 30 µM (inactive) | > 30 µM (inactive) | > 30 µM (inactive)
Cc1cccc(-c2nn3c(c2-c2ccnc4ccc(C(N)=O)cc24)CCC3)n1 [GALUNISERTIB] | > 30 µM (inactive) | > 30 µM (inactive) | > 30 µM (inactive) | > 30 µM (inactive) | – | > 30 µM (inactive) | > 30 µM (inactive)
CNC(=O)c1nn(C)c2c1C(C)(C)Cc1cnc(Nc3ccc(N4CCN(C)CC4)cc3)nc1-2 [MILCICLIB] | > 30 µM (inactive) | > 30 µM (inactive) | > 30 µM (inactive) | > 30 µM (inactive) | > 30 µM (inactive) | – | > 30 µM (inactive)
O=c1[nH]ccc2cc(OC3CCNCC3)ccc12 [SAR-407899 FREE BASE] | > 30 µM (inactive) | > 30 µM (inactive) | > 30 µM (inactive) | > 30 µM (inactive) | > 30 µM (inactive) | > 30 µM (inactive) | > 30 µM (inactive)

Source: ChEMBL document CHEMBL3991601, “The target landscape of clinical kinase drugs” (Science, 2017)
